From patent US10759740B2, “Antibacterial agents” (Rutgers, The State University of New Jersey, priority 2016, dated 2020)

What follows are compounds tested on Prevotella bivia ATCC 29303 (assay: MIC broth microdilution (Example 3)). Conditions: planktonic, anaerobic.
Format: cell-based
Description: (§1) The antimicrobial activity of CAms was also tested against Peptostreptococcus anaerobius ATCC 27337, Mobiluncus curtisii ATCC 35241 and Prevotella bivia ATCC 29303, all of which, in addition to G. vaginalis, are the most commonly isolated anaerobes from BV-infected women. These anaerobes were maintained within the anaerobic chamber and transferred daily into fresh sBHI. To prepare a stock solution, the CAm compounds were dissolved in ddH2O and incubated at 37° C. with shaking at 250 rpm for 10 min. Then, the solution was serially diluted twofold with sBHI broth to determine the MIC and with BHIG broth to identify the MIC-B/MBC-B against planktonic and biofilm cells, respectively. According to Clinical and Laboratory Standards Institute (CLSI 2010), the MIC is defined as the lowest concentration of antimicrobial compound producing no visible growth or complete inhibition of bacterial growth during 24 h. To determine MIC values, the broth microdilution assay was performed according to Algburi et al. (Algburi et al., 2015. Path Dis 73(5)) with minor modifications. Briefly, the overnight-grown cells were diluted with their suitable culture medium to approach ˜10^6 CFU/ml. The number of bacterial cells was identified using spot plate method (Turovskiy et al., 2012. Infect Dis Obstet Gynecol 2012:284762). The CAms were serially diluted twofold with sBHI into a non-tissue culture 96-well microplate plate (Falcon, Corning Incorporated, Corning, N.Y., USA) resulting in a final volume of 100 μl for each well. Aliquots of 100 μl of the diluted cell suspension (˜10^6 CFU/ml) were added to each well of a microplate that was treated with different concentrations of CAms. To avoid culture medium evaporation, 75 μl of mineral oil (Sigma-Aldrich, St. Louis, Mo.) was added to each treated well. The microplate was then transferred to the plate reader (Model 550, Bio-Rad Laboratories, Hercules, Calif., USA) and incubated at 37° C. for 24-36 h. The kinetic reading was statistically analyzed, and the MIC and sub-MIC of each CAm compound were determined.

Compound | MIC P. bivia
CCCCCCCC(=O)OC(C(=O)NCCN)C(OC(=O)CCCCCCC)C(=O)NCCN.Cl.Cl (stereo not drawn) [8a] | 111.6 µM
CCCCCCCCCCOC(C(=O)NCCN)C(OCCCCCCCCCC)C(=O)NCCN.Cl.Cl (stereo not drawn) [5b] | 6.6 µM
CCCCCCCCCC(=O)OC(C(=O)NCCN)C(OC(=O)CCCCCCCCC)C(=O)NCCN.Cl.Cl (stereo not drawn) [8b] | 6.3 µM

The compounds below were run on Mobiluncus curtisii ATCC 35241 (assay: MIC broth microdilution (Example 3)). Conditions: planktonic, anaerobic.
Format: cell-based
Description: as §1

Compound | MIC M. curtisii
CCCCCCCC(=O)OC(C(=O)NCCN)C(OC(=O)CCCCCCC)C(=O)NCCN.Cl.Cl (stereo not drawn) [8a] | 93.1 µM
CCCCCCCCCCOC(C(=O)NCCN)C(OCCCCCCCCCC)C(=O)NCCN.Cl.Cl (stereo not drawn) [5b] | 5.4 µM
CCCCCCCCCC(=O)OC(C(=O)NCCN)C(OC(=O)CCCCCCCCC)C(=O)NCCN.Cl.Cl (stereo not drawn) [8b] | 6.3 µM

The compounds below were run on Peptostreptococcus anaerobius ATCC 27337 (assay: MIC broth microdilution (Example 3)). Conditions: planktonic, anaerobic.
Format: cell-based
Description: as §1

Compound | MIC Pep. anaerobius
CCCCCCCC(=O)OC(C(=O)NCCN)C(OC(=O)CCCCCCC)C(=O)NCCN.Cl.Cl (stereo not drawn) [8a] | 13.9 µM
CCCCCCCCCCOC(C(=O)NCCN)C(OCCCCCCCCCC)C(=O)NCCN.Cl.Cl (stereo not drawn) [5b] | 1.6 µM
CCCCCCCCCC(=O)OC(C(=O)NCCN)C(OC(=O)CCCCCCCCC)C(=O)NCCN.Cl.Cl (stereo not drawn) [8b] | 3.1 µM

What follows are compounds tested on G. vaginalis ATCC 14019 (assay: MIC broth microdilution (Example 3)). Conditions: planktonic, sBHI, anaerobic.
Format: cell-based, Gardnerella vaginalis
Description: G. vaginalis ATCC 14019 strain was grown overnight in Brain Heart Infusion broth (Difco, Sparks, Md.) supplemented with 3% horse serum (sBHI) (JRH Biosciences, KS), while BHI supplemented with 1% glucose (BHIG) was used for biofilm formation assays. Each experiment using G. vaginalis was performed anaerobically (10% hydrogen, 5% carbon dioxide, and 85% nitrogen) within anaerobic glove boxes (Coy Laboratory Products, Inc., Grass Lake, Mich., USA). Three species of vaginal Lactobacillus were used in this study to evaluate the possible harmful effects of CAms on beneficial bacteria: Lactobacillus plantarum ATCC 39268, Lactobacillus rhamnosus 160 (provided by Dr. Aroutcheva, Rush University Medical Center) and Lactobacillus gasseri ATCC 33323; all were grown for 18-24 h in DeMan, Rogosa and Sharpe broth (MRS Difco B D, Franklin Lakes, N.J., USA) under aerobic conditions at 37° C. For lactobacilli biofilm formation, MRS broth supplemented with 1% glucose and 2% sucrose (Fisher Scientific, Waltham, Mass., USA) was utilized.
To prepare a stock solution, the CAm compounds were dissolved in ddH2O and incubated at 37° C. with shaking at 250 rpm for 10 min. Then, the solution was serially diluted twofold with sBHI broth to determine the MIC and with BHIG broth to identify the MIC-B/MBC-B against planktonic and biofilm cells, respectively.
According to Clinical and Laboratory Standards Institute (CLSI 2010), the MIC is defined as the lowest concentration of antimicrobial compound producing no visible growth or complete inhibition of bacterial growth during 24 h. To determine MIC values, the broth microdilution assay was performed according to Algburi et al. (Algburi et al., 2015. Path Dis 73(5)) with minor modifications. Briefly, the overnight-grown cells were diluted with their suitable culture medium to approach ˜10^6 CFU/ml. The number of bacterial cells was identified using spot plate method (Turovskiy et al., 2012. Infect Dis Obstet Gynecol 2012:284762). […]

Compound | MIC G. vaginalis
CCCCCCCC(=O)OC(C(=O)NCCN)C(OC(=O)CCCCCCC)C(=O)NCCN.Cl.Cl (stereo not drawn) [8a] | 24.4 µM
CCCCCCCCCCOC(C(=O)NCCN)C(OCCCCCCCCCC)C(=O)NCCN.Cl.Cl (stereo not drawn) [5b] | 1.1 µM
CCCCCCCCCC(=O)OC(C(=O)NCCN)C(OC(=O)CCCCCCCCC)C(=O)NCCN.Cl.Cl (stereo not drawn) [8b] | 2.3 µM
